# Experimental data from patent US20250312497A1, “METHOD OF TREATING PROSTATE CANCER” (Novartis AG, priority 2022, published 2025).
# Test system: PSMA-positive mCRPC participants
# Experiment: PSMAfore phase III: adverse events, serious adverse events, safety topics and deaths (safety set)
# Format: in vivo, human
# [1] = DCO 2 Oct 2022, safety set, preferred term
# [2] = DCO 2 Oct 2022, safety set, system organ class
# [3] = DCO 21 Jun 2023, ARDT prior to crossover
# [4] = DCO 21 Jun 2023, most common AEs by PT (>10% in either arm)
# [5] = DCO 21 Jun 2023, safety set, All Grades
# [6] = DCO 21 Jun 2023, safety set, Grade >=3
# [7] = Safety set, [[…]Lu]Lu-PSMA-617 N = 227, ARDT N = 232
# [8] = Safety set, [[…]Lu]Lu-PSMA-617 N = 227, ARDT N = 232 (prior to crossover), CTCAE V5.0
structure (smiles),measurement,setting,value
"O=C([O-])CN1CCN(CC(=O)[O-])CCN(CC(=O)NCC2CCC(C(=O)N[C@@H](Cc3ccc4ccccc4c3)C(=O)NCCCC[C@H](NC(=O)N[C@@H](CCC(=O)O)C(=O)O)C(=O)O)CC2)CCN(CC(=O)[O-])CC1.[177Lu+3] (stereo partly shown) [[177Lu]Lu-PSMA-617, lutetium (177Lu) vipivotide tetraxetan]",On-treatment deaths: Coma,[1],0 n (%)
same,On-treatment deaths: Dyspnoea,[1],0 n (%)
same,On-treatment deaths: Intestinal ischaemia,[1],1 (0.4) n (%)
same,On-treatment deaths: Sepsis,[1],1 (0.4) n (%)
same,On-treatment deaths: Cardiac disorders,[2],1 (0.4) n (%)
same,On-treatment deaths: Gastrointestinal disorders,[2],1 (0.4) n (%)
same,On-treatment deaths: Infections and infestations,[2],2 (0.9) n (%)
same,On-treatment deaths: Nervous system disorders,[2],0 n (%)
same,"On-treatment deaths: Respiratory, thoracic and mediastinal disorders",[2],0 n (%)
same,"AEs leading to discontinuation, Treatment-related",[3],3.1%
same,"Grade≥3 AEs, Treatment-related",[3],11.0%
same,"Serious AEs, Treatment-related",[3],3.1%
same,Anaemia,[4],24.2%
same,Arthralgia,[4],18.9%
same,Asthenia,[4],31.7%
same,Back pain,[4],12.3%
same,COVID-19,[4],16.3%
same,Constipation,[4],22.0%
same,Decreased appetite,[4],21.1%
same,Diarrhoea,[4],16.3%
same,Dry mouth,[4],57.3%
same,Fatigue,[4],22.9%
same,Nausea,[4],31.3%
same,Oedema peripheral,[4],8.4%
same,Vomiting,[4],11.5%
same,Weight decreased,[4],6.6%
same,AE preferred term: Anaemia,[5],55 (24.2) n (%)
same,AE preferred term: Arthralgia,[5],43 (18.9) n (%)
same,AE preferred term: Asthenia,[5],72 (31.7) n (%)
same,AE preferred term: Back pain,[5],28 (12.3) n (%)
same,AE preferred term: COVID-19,[5],37 (16.3) n (%)
same,AE preferred term: Constipation,[5],50 (22.0) n (%)
same,AE preferred term: Decreased appetite,[5],48 (21.1) n (%)
same,AE preferred term: Diarrhoea,[5],37 (16.3) n (%)
same,AE preferred term: Dry mouth,[5],130 (57.3) n (%)
same,AE preferred term: Fatigue,[5],52 (22.9) n (%)
same,AE preferred term: Nausea,[5],71 (31.3) n (%)
same,AE preferred term: Oedema peripheral,[5],19 (8.4) n (%)
same,AE preferred term: Vomiting,[5],26 (11.5) n (%)
same,AE preferred term: Weight decreased,[5],15 (6.6) n (%)
same,Adverse events (participants with at least one event),[5],223 (98.2) n (%)
same,Adverse events leading to discontinuation,[5],13 (5.7) n (%)
same,"Adverse events leading to discontinuation, Treatment-related",[5],7 (3.1) n (%)
same,Adverse events leading to dose adjustment,[5],8 (3.5) n (%)
same,Adverse events leading to dose interruption,[5],27 (11.9) n (%)
same,Adverse events requiring additional therapy,[5],162 (71.4) n (%)
same,"Adverse events, Treatment-related",[5],196 (86.3) n (%)
same,Fatal serious adverse events,[5],4 (1.8) n (%)
same,"Fatal serious adverse events, Treatment-related",[5],0 n (%)
same,Serious adverse events,[5],46 (20.3) n (%)
same,"Serious adverse events, Treatment-related",[5],7 (3.1) n (%)
same,AE preferred term: Anaemia,[6],14 (6.2) n (%)
same,AE preferred term: Arthralgia,[6],0 n (%)
same,AE preferred term: Asthenia,[6],1 (0.4) n (%)
same,AE preferred term: Back pain,[6],2 (0.9) n (%)
same,AE preferred term: COVID-19,[6],1 (0.4) n (%)
same,AE preferred term: Constipation,[6],1 (0.4) n (%)
same,AE preferred term: Decreased appetite,[6],0 n (%)
same,AE preferred term: Diarrhoea,[6],0 n (%)
same,AE preferred term: Dry mouth,[6],3 (1.3) n (%)
same,AE preferred term: Fatigue,[6],0 n (%)
same,AE preferred term: Nausea,[6],0 n (%)
same,AE preferred term: Oedema peripheral,[6],0 n (%)
same,AE preferred term: Vomiting,[6],0 n (%)
same,AE preferred term: Weight decreased,[6],2 (0.9) n (%)
same,Adverse events (participants with at least one event),[6],78 (34.4) n (%)
same,Adverse events leading to discontinuation,[6],8 (3.5) n (%)
same,"Adverse events leading to discontinuation, Treatment-related",[6],4 (1.8) n (%)
same,Adverse events leading to dose adjustment,[6],3 (1.3) n (%)
same,Adverse events leading to dose interruption,[6],13 (5.7) n (%)
same,Adverse events requiring additional therapy,[6],48 (21.1) n (%)
same,"Adverse events, Treatment-related",[6],25 (11.0) n (%)
same,Fatal serious adverse events,[6],4 (1.8) n (%)
same,"Fatal serious adverse events, Treatment-related",[6],0 n (%)
same,Serious adverse events,[6],41 (18.1) n (%)
same,"Serious adverse events, Treatment-related",[6],6 (2.6) n (%)
same,"Serious adverse event Acute kidney injury, All Grades",[7],2 (0.9) n (%)
same,"Serious adverse event Acute kidney injury, Grade >=3",[7],2 (0.9) n (%)
same,"Serious adverse event Anaemia, All Grades",[7],4 (1.8) n (%)
same,"Serious adverse event Anaemia, Grade >=3",[7],3 (1.3) n (%)
same,"Serious adverse event COVID-19, All Grades",[7],1 (0.4) n (%)
same,"Serious adverse event COVID-19, Grade >=3",[7],1 (0.4) n (%)
same,"Serious adverse event Femur fracture, All Grades",[7],2 (0.9) n (%)
same,"Serious adverse event Femur fracture, Grade >=3",[7],2 (0.9) n (%)
same,"Serious adverse event Haematuria, All Grades",[7],0 n (%)
same,"Serious adverse event Haematuria, Grade >=3",[7],0 n (%)
same,"Serious adverse event Pain, All Grades",[7],1 (0.4) n (%)
same,"Serious adverse event Pain, Grade >=3",[7],1 (0.4) n (%)
same,"Serious adverse event Pneumonia, All Grades",[7],1 (0.4) n (%)
same,"Serious adverse event Pneumonia, Grade >=3",[7],1 (0.4) n (%)
same,"Serious adverse event Sepsis, All Grades",[7],3 (1.3) n (%)
same,"Serious adverse event Sepsis, Grade >=3",[7],3 (1.3) n (%)
same,"Serious adverse event Spinal cord compression, All Grades",[7],2 (0.9) n (%)
same,"Serious adverse event Spinal cord compression, Grade >=3",[7],2 (0.9) n (%)
same,"Serious adverse event Urinary retention, All Grades",[7],1 (0.4) n (%)
same,"Serious adverse event Urinary retention, Grade >=3",[7],1 (0.4) n (%)
same,"Serious adverse event Urinary tract infection, All Grades",[7],4 (1.8) n (%)
same,"Serious adverse event Urinary tract infection, Grade >=3",[7],3 (1.3) n (%)
same,"Serious adverse events: number of participants with at least one event, All Grades",[8],46 (20.3) n (%)
same,"Serious adverse events: number of participants with at least one event, Grade >=3",[8],41 (18.1) n (%)
